Assay results as given in US4367226A, “N-Sugar compounds, compositions and uses thereof” (priority 1980, dated 1983).
Converted amounts (≈) assume the structure as drawn.

How the values were obtained:
Candida albicans = test: Broth dilution MIC / antimicrobial test against Candida albicans (A.T.C.C. 10259); type: cell-based; conditions: 25°
Text: (§1) In testing for the anti-microbial activity five different types of organics were selected: Staphyloccoccus aureus, Escherichia coli, Pseudomonas aeruginosa, Candida albicans, and Aspergillus niger. The inclusion of Asperigillus niger and Pseudomonas aeruginosa in the inocula is recommended to ensure a wide range of protection because these ubiquitous organisms grow in a large variety of formulations and relatively resistant to antimicrobial agents. The incidence of contaminated cosmetics has been the subject of several investigations ^(6)(7). Pseudomonas was the predominant organism found.
(§2) One Gram-positive, two Gram-negative bacteria, one each of a yeast and a mold were selected for the test. These were, respectively, Staphylococcus aureus(A.T.C.C. 6538), Escherichia coli(A.T.C.C. 11229), Pseudomonas aeruginosa(A.T.C.C. 15442), Candida albicans(A.T.C.C. 10259), and Aspergillus niger(A.T.C.C. 1015).
(§3) Portions of four or five discrete colonies representative of the organisms to be tested were inoculated into 10.0 ml. of a suitable broth medium and marked accordingly. The inoculated tubes were incubated at 37° for S. aureus, E. coli, and P. aeruginosa, and at 25° for C. albicans and A. niger for 18-24 hours.
(§4) Medium: Trypticase Soy Agar(BBL) was used for bacteria, and Sabouraud Maltose Agar(BBL) for the yeast and the mold.
(§5) Inoculation of agar plates and incubation: A 10 cm. round plastic plate was used for the preparation of medium. Each plate was divided into four areas by marking on the bottom of the plate. The agar plate was streaked by the appropriate inoculation loop. Three thin loopful of inocula were applied for covering the complete agar plate. Approximately 10-15 mg. of compound to be tested was placed at the corresponding area of each inoculated plate. The plates inoculated with S. aureus, E. coli, and P. aeruginosa were incubated at 37° for 24-48 hours, and those incubated with C. albicans and A. niger were incubated at 25° for 48-72 hours. […]

Aspergillus niger = test: Broth dilution MIC / antimicrobial test against Aspergillus niger (A.T.C.C. 1015); type: cell-based; conditions: 25°
Text: as §1, §2, §3
Medium: Trypticase Soy Agar(BBL) was used for bacteria, and Sabouraud Maltose Agar(BBL) for the yeast and the mold. […]

Staphylococcus aureus = test: Broth dilution MIC / antimicrobial test against Staphylococcus aureus (A.T.C.C. 6538); type: cell-based; conditions: for activity against S. aureus (in words): 37°
Text: as §1, §2, §3, §4
Inoculation of agar plates and incubation: A 10 cm. round plastic plate was used for the preparation of medium. Each plate was divided into four areas by marking on the bottom of the plate. The agar plate was streaked by the appropriate inoculation loop. Three thin loopful of inocula were applied for covering the complete agar plate. Approximately 10-15 mg. of compound to be tested was placed at the corresponding area of each inoculated plate. The plates inoculated with S. aureus, E. coli, and P. aeruginosa were incubated at 37° for 24-48 hours, and those incubated with C. albicans and A. niger were incubated at 25° for 48-72 hours.
Interpretation and result: After incubation, if a zone of inhibition was visible around the compound placed, the susceptibility of the organism to the compound was considered to be positive. The degree of positiveness of the compound was decided by the size of the zone.
The broth dilution method was chosen for the determination of the MIC. A 10^-1 molar stock solution was prepared by dissolving or suspending the required amount of compound in the sterilized distilled water. The desired number of sterile test tubes were aseptically filled with 9.0 ml. of Trypticase Soy Broth(BBL). 1.0 ml. of the stock solution was added to the first tube and mixed thoroughly. With a sterile pipette, 1.0 ml. was transferred from the first tube to the second tube. […]

bacterial growth = test: Preservative action in cosmetic formulations; conditions: for preservation against bacterial combination: Examples I and III of U.S. Pat. No. 3,957,970, replacing the 0.05% preservative by an equal amount
Text: The compositions of this invention are of particular utility in aqueous cosmetic formulations to inhibit bacterial growth. Reference is hereby made to cosmetic formulations as disclosed in the following U.S. Pat. Nos.: (1) 4,159,318 (2) 4,164,564, (3) 4,137,302, (4) 4,148,875, (5) 4,001,141, (6) 4,048,338, (7) 3,919,430 and (8) 3,957,970 as exemplary of formulations with which the present thioureas and thiazoles can be used; thus, Example 4 of U.S. Pat. No. 4,137,302 discloses ethyl p-dimethylaminobenzoate (0.75%).
In Example 6 of U.S. Pat. No. 4,048,338, the 0.18 parts of methyl p-hydroxybenzoate is replaced by equal parts of the compound of Example 10 on the one hand and that of Example 12 on the other hand.
Each of the foregoing U.S. Patents (1) to (8) is hereby incorporated by reference thereto.

Pseudomonas aeruginosa = test: Broth dilution MIC / antimicrobial test against Pseudomonas aeruginosa (A.T.C.C. 15442); type: cell-based; conditions: 37°
Text: as §1, §2, §3, §4, §5

Escherichia coli = test: Broth dilution MIC / antimicrobial test against Escherichia coli (A.T.C.C. 11229); type: cell-based; conditions: 37°
Text: as §1, §2, §3, §4, §5

[1] = LD50 test (acute toxicity, intraperitoneal); type: in vivo, Charles River CD-1 male mice; conditions: 2000 mg/kg, one mouse
Description: The toxicity of some of the compounds was ascertained in an LD50 test.
The LD50 tests were performed for the following compounds; N-β-D-glucopyranosyl-N'-n-butylthiourea, N-β-D-glucopyranosyl-N'-benzylthiourea, N-β-D-glucopyranosyl-piperidine-1-thiocarboxamide, N-β-D-glucopyranosylthiourea, and ethyl 2-(N-β-D-glucopyranosyl)aminothiazole-4-carboxylate. The compounds were administered intraperitoneally dissolved or suspended in normal saline by 20-25 gm Charles River CD-1 male mice.
Two animals received 1000 mg/kg and one animal received 2000 mg/kg. With the exception of the animal given by ethyl 2-(N-β-D-glucopyranosyl)aminothiazole-4-carboxylate at 2000 mg/kg, all animals survived the acute effects and appeared normal after 1 week.

[2] = Example 6 of U.S. Pat. No. 4,048,338, replacing 0.18 parts of methyl p-hydroxybenzoate by equal parts

Compound | activity against C. albicans (in words) (Candida albicans) | activity against A. niger (in words) (Aspergillus niger) | activity against S. aureus (in words) (Staphylococcus aureus) | MIC (Staphylococcus aureus; Staphylococcus aureus, S. aureus A.T.C.C. 6538, broth dilution, 24-48 hours at 37°, read-out: M.I.C. (Minimal Inhibitory Concentration)) [µM] | preservative action (bacterial growth; Example 4 of U.S. Pat. No. 4,137,302, in lieu of ethyl p-dimethylaminobenzoate (0.75%)) | preservative action (bacterial growth; [2]) | preservation against bacterial combination (bacterial growth) | activity against P. aeruginosa (in words) (Pseudomonas aeruginosa) | activity against E. coli (in words) (Escherichia coli) | death [1]
CCCCNC(=S)N[C@@H]1O[C@H](CO)[C@@H](O)[C@H](O)[C@H]1O [Example 2, N-β-D-Glucopyranosyl-N'-n-butylthiourea] | particularly outstanding activity | particularly outstanding activity | – | – | – | – | – | – | – | –
C=CCNC(=S)N[C@@H]1O[C@H](CO)[C@@H](O)[C@H](O)[C@H]1O [Example 10, N-β-D-Glucopyranosyl-N'-allylthiourea] | – | – | particularly outstanding activity | 100 (≈ 27.8 µg/mL) | excellent preservative action | excellent preservative action | excellent preservation against bacterial combination | – | – | –
OC[C@H]1O[C@@H](NC(=S)N2CCCCC2)[C@H](O)[C@@H](O)[C@@H]1O [Example 11, N-β-D-Glucopyranosylpiperidine-1-thiocarboxamide] | – | – | – | – | – | – | – | particularly outstanding activity | – | –
Br.CCOC(=O)c1csc(N[C@@H]2O[C@H](CO)[C@@H](O)[C@H](O)[C@H]2O)n1 [Example 15, Ethyl 2-(N-β-D-glucopyranosyl)aminothiazole-4-carboxylate hydrobromide] | broad activities against 4 organisms | not against A. Niger | broad activities against 4 organisms | – | – | – | excellent preservation against bacterial combination | broad activities against 4 organisms | broad activities against 4 organisms | dying two days later
OC[C@H]1O[C@@H](NC(=S)NCc2ccccc2)[C@H](O)[C@@H](O)[C@@H]1O [Example 5, N-β-D-Glucopyranosyl-N'-benzylthiourea] | – | – | – | – | – | – | – | particularly outstanding activity | particularly outstanding activity | –
OC[C@H]1O[C@@H](NC(=S)NCc2ccc(Cl)cc2)[C@H](O)[C@@H](O)[C@@H]1O [Example 12, N-β-D-Glucopyranosyl-N'-4-chlorobenzylthiourea] | broad inhibitory activities | – | broad inhibitory activities | – | – | excellent preservative action | excellent preservation against bacterial combination | – | broad inhibitory activities | –
